Here are results for 24 molecules from article PMC8657982, “Overlap and Specificity in the Substrate Spectra of Human Monoamine Transporters and Organic Cation Transporters 1, 2, and 3” (International Journal of Molecular Sciences, 2021).

In data set [1] the target is SERT (Homo sapiens, UniProt P31645). The data set is described as follows: Uptake into HEK293 cells overexpressing SERT (uptake ratio and concentration-dependent uptake).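 As to Uptake Ratio by Transporter SERT: ratio of uptake in SERT cells over empty-vector control cells.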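 As to all read-outs here: incubation at 37 °C, intracellular compound quantified by HPLC-MS/MS after cell lysis, uptake normalized to total protein measured by bicinchoninic acid assay.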 To be noted: for Clint ± SEM: SERT, intrinsic clearance, quotient of vmax and Km.
Sequence of SERT (P31645 whole entry): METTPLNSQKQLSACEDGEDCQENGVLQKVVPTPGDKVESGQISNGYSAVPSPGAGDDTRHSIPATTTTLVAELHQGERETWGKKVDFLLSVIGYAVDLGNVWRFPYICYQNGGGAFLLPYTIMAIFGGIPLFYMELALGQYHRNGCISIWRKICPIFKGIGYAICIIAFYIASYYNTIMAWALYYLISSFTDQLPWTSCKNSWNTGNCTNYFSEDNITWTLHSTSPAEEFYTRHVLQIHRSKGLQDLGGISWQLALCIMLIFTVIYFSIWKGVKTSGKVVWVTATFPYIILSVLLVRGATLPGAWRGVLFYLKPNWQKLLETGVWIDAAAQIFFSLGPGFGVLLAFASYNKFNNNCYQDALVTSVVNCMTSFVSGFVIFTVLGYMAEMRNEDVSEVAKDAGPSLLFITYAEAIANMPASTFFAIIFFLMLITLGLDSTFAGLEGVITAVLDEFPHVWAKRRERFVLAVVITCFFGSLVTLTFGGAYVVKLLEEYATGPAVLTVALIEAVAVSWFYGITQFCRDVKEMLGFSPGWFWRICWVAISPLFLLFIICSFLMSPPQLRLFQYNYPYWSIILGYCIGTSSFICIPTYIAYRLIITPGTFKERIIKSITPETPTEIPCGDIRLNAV
For data set [2], the target named is NET (Homo sapiens, UniProt P23975). The data set is described as follows: Uptake into HEK293 cells overexpressing NET (uptake ratio and concentration-dependent uptake). To be noted: intrinsic clearance, quotient of vmax and Km.
Sequence of NET (P23975 whole entry): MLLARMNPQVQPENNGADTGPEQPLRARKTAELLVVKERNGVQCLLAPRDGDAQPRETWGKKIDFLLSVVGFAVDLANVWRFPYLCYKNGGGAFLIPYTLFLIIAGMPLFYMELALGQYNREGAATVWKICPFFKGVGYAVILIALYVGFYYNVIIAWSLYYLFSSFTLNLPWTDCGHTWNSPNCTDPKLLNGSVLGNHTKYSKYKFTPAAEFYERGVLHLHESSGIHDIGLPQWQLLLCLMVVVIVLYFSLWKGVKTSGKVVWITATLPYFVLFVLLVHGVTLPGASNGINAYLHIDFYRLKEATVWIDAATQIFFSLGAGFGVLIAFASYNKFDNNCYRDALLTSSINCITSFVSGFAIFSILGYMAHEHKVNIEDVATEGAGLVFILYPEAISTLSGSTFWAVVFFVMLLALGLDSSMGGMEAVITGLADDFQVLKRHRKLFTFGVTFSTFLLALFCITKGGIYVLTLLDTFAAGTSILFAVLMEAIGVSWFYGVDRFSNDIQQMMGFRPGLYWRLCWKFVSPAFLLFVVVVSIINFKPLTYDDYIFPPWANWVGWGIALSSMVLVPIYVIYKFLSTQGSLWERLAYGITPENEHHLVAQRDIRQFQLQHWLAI
For data set [3], the target named is DAT (Homo sapiens, UniProt Q01959). The data set is described as follows: Uptake into HEK293 cells overexpressing DAT (uptake ratio and concentration-dependent uptake). To be noted: intrinsic clearance, quotient of vmax and Km.
Sequence of DAT (Q01959 whole entry): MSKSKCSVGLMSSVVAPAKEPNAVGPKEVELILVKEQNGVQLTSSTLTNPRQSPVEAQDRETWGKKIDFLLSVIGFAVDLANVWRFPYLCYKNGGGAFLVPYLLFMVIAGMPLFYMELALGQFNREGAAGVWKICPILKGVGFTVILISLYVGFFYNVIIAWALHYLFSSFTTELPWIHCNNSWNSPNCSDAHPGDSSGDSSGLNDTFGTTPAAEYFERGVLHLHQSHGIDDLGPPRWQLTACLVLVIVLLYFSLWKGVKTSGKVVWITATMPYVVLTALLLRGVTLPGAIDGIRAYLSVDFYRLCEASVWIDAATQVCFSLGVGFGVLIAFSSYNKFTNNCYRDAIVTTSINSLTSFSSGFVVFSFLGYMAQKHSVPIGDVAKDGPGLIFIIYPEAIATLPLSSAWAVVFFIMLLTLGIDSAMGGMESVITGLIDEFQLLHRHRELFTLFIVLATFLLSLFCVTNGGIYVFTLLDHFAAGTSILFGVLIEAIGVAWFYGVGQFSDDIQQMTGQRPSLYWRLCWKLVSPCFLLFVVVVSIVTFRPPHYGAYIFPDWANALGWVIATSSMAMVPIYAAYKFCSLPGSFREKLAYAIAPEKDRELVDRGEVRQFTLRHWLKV
The target of data set [4] is T1, OCT2 (Homo sapiens, UniProt O15244).
T1 sequence (O15244 1-555): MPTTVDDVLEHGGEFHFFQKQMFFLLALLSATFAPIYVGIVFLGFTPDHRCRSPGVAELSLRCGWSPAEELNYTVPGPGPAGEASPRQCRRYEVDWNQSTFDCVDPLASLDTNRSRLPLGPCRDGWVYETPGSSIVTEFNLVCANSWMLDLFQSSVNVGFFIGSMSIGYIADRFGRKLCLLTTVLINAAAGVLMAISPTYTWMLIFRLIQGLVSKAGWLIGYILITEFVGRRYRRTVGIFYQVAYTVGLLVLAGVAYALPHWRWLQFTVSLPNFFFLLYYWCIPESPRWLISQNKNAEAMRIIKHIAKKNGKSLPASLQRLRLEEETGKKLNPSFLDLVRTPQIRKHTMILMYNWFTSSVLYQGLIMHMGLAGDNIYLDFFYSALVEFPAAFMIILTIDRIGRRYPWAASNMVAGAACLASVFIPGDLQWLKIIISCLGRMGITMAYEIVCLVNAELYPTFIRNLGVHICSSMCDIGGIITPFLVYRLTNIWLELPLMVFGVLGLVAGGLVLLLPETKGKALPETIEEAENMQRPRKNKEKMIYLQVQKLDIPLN
In words: Uptake into HEK293 cells overexpressing OCT2 (uptake ratio and concentration-dependent uptake).

Data set [5] concerns the target T2, OCT3 (Homo sapiens, UniProt O75751).
T2 sequence (O75751 1-556): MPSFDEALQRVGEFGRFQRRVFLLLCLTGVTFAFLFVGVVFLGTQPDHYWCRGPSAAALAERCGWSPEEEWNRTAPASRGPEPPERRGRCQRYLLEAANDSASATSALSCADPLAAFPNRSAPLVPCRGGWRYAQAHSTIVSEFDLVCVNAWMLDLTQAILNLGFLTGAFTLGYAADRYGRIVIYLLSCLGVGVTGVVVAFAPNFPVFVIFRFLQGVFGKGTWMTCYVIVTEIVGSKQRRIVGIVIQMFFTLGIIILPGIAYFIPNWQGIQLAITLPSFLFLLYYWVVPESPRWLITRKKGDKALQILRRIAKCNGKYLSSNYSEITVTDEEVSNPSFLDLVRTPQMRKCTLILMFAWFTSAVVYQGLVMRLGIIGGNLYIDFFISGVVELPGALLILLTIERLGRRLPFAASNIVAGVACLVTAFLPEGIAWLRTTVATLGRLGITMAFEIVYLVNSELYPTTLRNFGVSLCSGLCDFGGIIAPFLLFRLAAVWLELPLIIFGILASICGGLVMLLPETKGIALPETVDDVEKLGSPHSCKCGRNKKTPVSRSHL
In words: Uptake into HEK293 cells overexpressing OCT3 (uptake ratio and concentration-dependent uptake). To be noted: intrinsic clearance, quotient of vmax and Km.

Data set [6] deals with T3, OCT1 (Homo sapiens, UniProt O15245).
T3 sequence (O15245 1-554): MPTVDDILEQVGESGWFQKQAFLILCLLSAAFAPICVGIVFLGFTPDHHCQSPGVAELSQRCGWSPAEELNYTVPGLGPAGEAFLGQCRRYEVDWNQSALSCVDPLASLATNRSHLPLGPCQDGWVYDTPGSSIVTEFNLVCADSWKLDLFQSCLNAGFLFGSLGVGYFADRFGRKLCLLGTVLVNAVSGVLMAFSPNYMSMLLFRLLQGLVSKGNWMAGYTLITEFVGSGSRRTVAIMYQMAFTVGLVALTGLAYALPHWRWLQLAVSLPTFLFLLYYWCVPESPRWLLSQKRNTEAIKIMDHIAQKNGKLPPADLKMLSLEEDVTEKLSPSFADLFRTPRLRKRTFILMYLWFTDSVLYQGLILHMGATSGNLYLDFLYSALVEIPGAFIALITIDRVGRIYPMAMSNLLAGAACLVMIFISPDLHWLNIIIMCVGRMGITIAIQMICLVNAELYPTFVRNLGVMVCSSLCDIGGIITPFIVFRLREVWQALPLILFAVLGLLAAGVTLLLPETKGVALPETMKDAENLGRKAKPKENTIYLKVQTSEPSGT
In words: Uptake into HEK293 cells overexpressing OCT1 (uptake ratio and concentration-dependent uptake). To be noted: intrinsic clearance, quotient of vmax and Km.

Substrate in data set [7]: CNCCc1c[nH]c2ccc(O)cc12
The data set is described as follows: cells, lysate or membranes. To be noted: concentration-dependent net uptake, Michaelis–Menten, pH 7.4.

Substrate in data set [8]: N=C(N)NCc1cccc(I)c1
The data set is described as follows: cells, lysate or membranes. To be noted: concentration-dependent net uptake, Michaelis–Menten, pH 7.4.

Substrate in data set [9]: NCCc1c[nH]c2ccc(O)cc12
In words: cells, lysate or membranes. To be noted: concentration-dependent net uptake, Michaelis–Menten, pH 7.4.

On to `COc1cc(CCN)ccc1O` [3-Methoxy-p-tyramine], for which the “Uptake Ratio by Transporter SERT” value in [1] amounted to 4.45. Same read-out and setting: next, `NCc1ccc(O)cc1` [4-Hydroxybenzylamine]: 1.55; `COc1ccc(CCN)cc1O` [4-Methoxy-m-tyramine]: 3.86. On the same count and under the same terms, next, `COc1ccc2[nH]cc(CCN)c2c1` [5-Methoxy-Tryptamine]: 3.46. For the molecule `NC[C@H](O)c1ccc(O)c(O)c1` [(-)-Norepinephrine], in [2], the “Clint ± SEM” value is given as 47.8 mL × g Protein^−1 × min^−1. `CN[C@@H]1CCc2[nH]c3ccc(C(N)=O)cc3c2C1` [(R)-Frovatriptan, reference compound]: the “Clint ± SEM” value in data set [1] is 38.48 mL × g Protein^−1 × min^−1. Consider `NCC(O)c1ccccc1` (stereo not drawn) [Bisnorephedrine], for which the “Uptake Ratio by Transporter SERT” value in data set [1] worked out at 1.45.

Take `CNCCc1ccc(O)c(O)c1` [Deoxyepinephrine]: in data set [1], the “Uptake Ratio by Transporter SERT” value came out at 13.89.

In the case of `NCCc1ccc(O)c(O)c1` [Dopamine], the “Clint ± SEM” value in data set [3] is 78.9 mL × g Protein^−1 × min^−1.

In the case of `CNCC(O)c1ccccc1` (stereo not drawn) [Halostachine], the “Uptake Ratio by Transporter SERT” value in data set [1] is on record as 2.26. Turning to `CN(C)CCc1ccc(O)cc1` [Hordenine], the “Uptake Ratio by Transporter SERT” value in [1] came out at 2.02. Regarding `C[n+]1ccc(-c2ccccc2)cc1` [MPP+, reference compound], in data set [1], the “Uptake Ratio by Transporter SERT” value came to 50.42. On the same count and under the same terms, next, `CNCC(O)c1ccc(O)c(OC)c1` (stereo not drawn) [Metanephrine]: 1.97; `CNCCc1ccc(O)cc1` [N-Methyl p-tyramine]: 2.46.

As for `CNCCc1c[nH]c2ccc(O)cc12` [N-Methyl serotonin], the “Clint ± SEM” value in data set [1] is 337.7 mL × g Protein^−1 × min^−1; in data set [4] (intrinsic clearance, quotient of vmax and Km) it was 46.93 mL × g Protein^−1 × min^−1; in data set [5], 9.68 mL × g Protein^−1 × min^−1; in data set [6], 80.52 mL × g Protein^−1 × min^−1. Moreover, the “Vmax ± SEM” value in [4] (concentration-dependent net uptake, Michaelis–Menten) was 11,918 pmol × mg Protein^−1 × min^−1.

For the molecule `CNCCc1ccccc1` [N-Methylphenylethylamine], the “Uptake Ratio by Transporter SERT” value in [1] is 2.29. With `COc1cc(C(O)CN)ccc1O` (stereo not drawn) [Normetanephrine], the “Uptake Ratio by Transporter SERT” value in [1] amounted to 1.91.

For the molecule `CNCC(O)c1ccc(O)cc1` (stereo not drawn) [Synephrine], in data set [1], the “Uptake Ratio by Transporter SERT” value came out at 1.53.

For `NC1CC1c1ccccc1` (stereo not drawn) [Tranylcypromin, reference compound], the “Uptake Ratio by Transporter SERT” value in data set [1] was 2.37. Consider `NCCc1c[nH]c2ccccc12` [Tryptamine], for which, in data set [1], the “Uptake Ratio by Transporter SERT” value was 4.88 and the “Clint ± SEM” value is 22.0 mL × g Protein^−1 × min^−1. On to `NCCc1cccc(O)c1` [m-Tyramine], for which the “Uptake Ratio by Transporter SERT” value in data set [1] was found to be 3.08.

B1: OCT3 (Homo sapiens) (protein)
chain: T2 sequence (O75751 1-556)
For the molecule B1, in [7] (other: OCT3), the Michaelis-Menten constant (Km) was found to be 18.78 ± 12.42 µM and the Vmax is recorded as 181.7 pmol × mg Protein^−1 × min^−1. For the same molecule, in data set [8] (other: OCT3), the Michaelis constant (Km) is listed as 10.5 ± 1.9 µM, the Vmax came to 0.00169 µmol/min/mg and the Vmax/Km came out at 161 µL/min/mg.

B2: OCT2 (Homo sapiens) (protein)
chain: T1 sequence (O15244 1-555)
As to B2, in data set [7] (other: OCT2), the Km was determined as 253.9 ± 54.98 µM and the Vmax is 11918 pmol × mg Protein^−1 × min^−1. In data set [8] (other: OCT2), the Km was 13.3 ± 2.4 µM, the Vmax worked out at 0.00204 µmol/min/mg and the Vmax/Km amounted to 152 µL/min/mg. In [9] (other: OCT2), the Km is reported as 685.6 µM and the Vmax is 31565 pmol × mg Protein^−1 × min^−1.

B3: OCT1 (Homo sapiens) (protein)
chain: T3 sequence (O15245 1-554)
For the molecule B3, in data set [7] (other: OCT1), the Km is 27.78 ± 9.19 µM and the Vmax is 2237 pmol × mg Protein^−1 × min^−1. Also, in data set [8] (other: OCT1), the Michaelis constant (Km) is on record as 16.6 ± 3.7 µM, the Vmax was determined as 0.0023 µmol/min/mg and the Vmax/Km amounted to 138 µL/min/mg. In addition, in data set [9] (other: OCT1), the Km is 235.6 µM and the maximum rate (Vmax) was 5161 pmol × mg Protein^−1 × min^−1.
